Assay results as given in ChEMBL document CHEMBL1123922.

Key:
[1] = target: Prostaglandin G/H synthase 1 (Ovis aries) (UniProt P05979); test: Inhibition of PGH synthase by measuring oxygen consumption with a Clark oxygen electrode at 100 uM; parameters: scale not given: the % may be the effect or the level left
[2] = target: Prostaglandin G/H synthase 1 (Ovis aries) (UniProt P05979); test: Inhibition of PGH synthase was determined by measuring oxygen consumption with a Clark oxygen electrode at 25 uM; parameters: scale not given: the % may be the effect or the level left

Chain of Prostaglandin G/H synthase 1 (Ovis aries) (P05979 whole entry, looked up): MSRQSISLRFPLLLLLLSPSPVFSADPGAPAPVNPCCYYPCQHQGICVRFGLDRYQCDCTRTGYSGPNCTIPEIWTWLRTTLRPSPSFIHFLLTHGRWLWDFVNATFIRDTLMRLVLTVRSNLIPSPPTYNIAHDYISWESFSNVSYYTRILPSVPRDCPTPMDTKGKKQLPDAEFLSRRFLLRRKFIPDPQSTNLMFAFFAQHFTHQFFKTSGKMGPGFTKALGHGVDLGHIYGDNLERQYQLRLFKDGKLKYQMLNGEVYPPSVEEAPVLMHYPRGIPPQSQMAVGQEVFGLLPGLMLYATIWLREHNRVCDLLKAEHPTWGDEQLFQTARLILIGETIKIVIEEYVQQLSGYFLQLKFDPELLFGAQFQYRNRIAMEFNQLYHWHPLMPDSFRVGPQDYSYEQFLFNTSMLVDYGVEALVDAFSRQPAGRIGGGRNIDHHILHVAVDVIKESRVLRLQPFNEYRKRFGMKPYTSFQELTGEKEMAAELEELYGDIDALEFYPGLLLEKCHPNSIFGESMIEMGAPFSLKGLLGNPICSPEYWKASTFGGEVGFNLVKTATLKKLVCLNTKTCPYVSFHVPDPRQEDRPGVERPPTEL

## CC(C)=C1C(=O)N(c2ccccc2)N(c2ccccc2)C1=O
[1]
  Control: 63%
[2]
  Control: 89%

## O=C(CBr)NCCC1C(=O)N(c2ccccc2)N(c2ccccc2)C1=O
[1]
  Control: 79%

## O=C1C(=C/C=C/c2ccccc2)C(=O)N(c2ccccc2)N1c1ccccc1
[1]
  Control: 96%

## CC(=C1C(=O)N(c2ccccc2)N(c2ccccc2)C1=O)c1ccccc1
[1]
  Control: 31%
[2]
  Control: 73%

## CC(C)(C#N)C1C(=O)N(c2ccccc2)N(c2ccccc2)C1=O
[1]
  Control: 5%
[2]
  Control: 23%

## O=C(CCl)NCCC1C(=O)N(c2ccccc2)N(c2ccccc2)C1=O
[1]
  Control: 90%

## O=C(NCCC1C(=O)N(c2ccccc2)N(c2ccccc2)C1=O)Oc1ccccc1
[1]
  Control: 42%
[2]
  Control: 78%

## O=C1C(CC#CCCl)C(=O)N(c2ccccc2)N1c1ccccc1
[1]
  Control: 10%
[2]
  Control: 35%

## CCCC=C1C(=O)N(c2ccccc2)N(c2ccccc2)C1=O
[1]
  Control: 18%
[2]
  Control: 29%

## CCC(C)=C1C(=O)N(c2ccccc2)N(c2ccccc2)C1=O
[1]
  Control: 21%
[2]
  Control: 49%
